In patent US6319501A, “Method of immunizing against hepatitis B virus” (Health Research, Inc., priority 1993, dated 2001):
Read-outs that look alike come from different tables or passages of the source. Ends that are not written are not given here.

Tests used:
[1] = system: T-helper (Th) lymphocytes; conditions: humans immunized with HBsAg; linear and cyclic forms; cited from earlier work
[2] = system: T-helper (Th) lymphocytes; conditions: mice immunized with HBsAg; linear and cyclic forms; cited from earlier work
[3] = system: anti-HBs; conditions: cited from earlier work
[4] = system: native HBsAg; conditions: after polymerization with glutaraldehyde; cited from earlier work
[5] = system: Murine T cells primed to rHBsAg, subtype ad; test: In vitro proliferation (3H-TdR incorporation) of T cells from Balb/c mice primed with rHBsAg subtype ad (FIG. 4); assay type: cell-based, mouse (Balb/c); conditions: mice primed with HBsAg ad
Excerpt: FIG. 4. depicts relative T cell-stimulatory activity of replacement set peptides expressed as a percentage of stimulation elicited by the parent peptide. Murine T cells were obtained by nylon wool column purification of Balb/c lymph node cells primed to rHBsAg, subtype ad (RecombiVax HB, Merck Sharp & Dohme). For comparison the T cells-stimulatory response to rHBsAg, subtype ad (97,024), rHBsAg subtype ayr (64,878), parent peptide (44,916=100%) and media control (1,873) was examined at optimal concentrations for each antigen. Values shown in parentheses are mean cpms corresponding to ^3 H-TdR incorporation measured in triplicate. Amino acid residues replacing amino acids in the parent sequence are shown at the bottom of the bars.
(§1) Balb/c mice were immunized in the hind foot pads, either with 0.5 μg of RecombiVax HB or with HBsAg subtype ayw (Scripps Laboratories), on day 0, 14 and 21. One week after the last injection, the animals were sacrificed and the popliteal lymph nodes were collected. The nodes were teased apart and the dispersed cells were then washed twice in RPMI-1640 medium without any serum supplement and once in RPMI medium containing 10% bovine calf serum. A cell count was made and the cell concentration was adjusted so that T cell enrichment was then done at 1×10^8 cells/0.6g of packed nylon wool column. […]

[6] = system: antibodies recognizing the (139-147) segment of the S-protein (reaction with HBsAg); test: Inhibition of attachment of antibodies recognizing S(139-147) to HBsAg-coated wells (comparative antigenicity of replacement set peptides); assay type: binding, rabbit
Experimental: FIG. 1. concerns the relative inhibitory activity of replacement set peptides on the reaction of antibodies recognizing the (139-147) segment of the S-protein with HBsAg. The concentration of each peptide at which the attachment of antibodies to solid phase HBsAg was reduced by 50% (C50) was determined. C50 of the parent peptide (sequence shown on top of the bars) was divided by C50 for each inhibitory peptide and the log10 of the ratio was plotted on the ordinate. Amino acid residues replacing amino acids in the parent sequence are shown on the top of each bar. The sequence numbers of residues being replaced in the parent sequence are shown on the bottom of the bar groups.
Wells of 96-well polystryene plates (Removawell, Immunolon II, Dynatech Laboratories, Chantilly, Va.) were coated with HBsAg subtype adw (200 μl; 100 μg/ml in 0.01 M Tris HCl pH 8.8) overnight at 20° C. The wells were then coated with a mixture of bovine serum albumin (BSA) and gelatin (10 and 2.5 mg/ml, respectively) in 0.14 M NaCl, 0.01 M Tris, 0.02% NaN3 (TS). […] The diluted antiserum, without added peptides, and normal rabbit serum served as positive and negative controls, respectively. Aliquots of the diluted rabbit sera with or without the peptides (200 μl) were added to the HBsAg-coated wells. After overnight incubation at 25° C., the plates were washed with 200 μl of TS and ^125 I-labeled anti-rabbit IgG (Kirkegaard & Perry Laboratories, Inc., Gaithersburg, Md.; 200,000 cpm diluted 1:1 with TSBG) were added to the wells. After incubation for 2 hours at 37° C., the wells were washed with TS and counted for radioactivity. Radioactivity, corrected for counts corresponding to diluted normal rabbit serum, was plotted against the log10 of the concentration of the respective peptides. […]

[7] = system: Murine T cells primed with HBsAg, subtype ayr; test: In vitro proliferation (3H-TdR incorporation) of T cells from Balb/c mice primed with HBsAg subtype ayr (FIG. 3); assay type: cell-based, mouse (Balb/c)
Excerpt: FIG. 3. depicts relative T cell-stimulatory activity of replacement set peptides expressed as a percentage of stimulation elicited by the parent peptide. Murine T cells were obtained by nylon wool column purification of Balb/c lymph node cells primed with HBsAg, subtype ayr (Scripps Laboratories, San Diego, Calif.). For comparison, the T cell-stimulatory response to rHBsAg, subtype ad(32,657), HBsAg subtype ayr (54,640), parent peptide (16,073=100%) and media control (330) were examined at optimal concentrations for each antigen. Values shown in parentheses are mean cpms corresponding to ^3 H-TdR incorporation measured in triplicate. Amino acid residues replacing amino acids in the parent sequence are shown at the bottom of the bars.
as §1

[8] = system: Human peripheral blood mononuclear cells (PBMC); test: In vitro proliferation (3H-TdR incorporation) of human PBMC / T cells from rHBsAg vaccinees (FIG. 5); assay type: cell-based; conditions: humans immunized with recombinant HBsAg vaccine
Excerpt: Human peripheral blood mononuclear cells (PBMC) were obtained from volunteers who had received the full course of the rHBsAg vaccine (Merck Sharp & Dohme). Donor 1 .box-solid. Donor 2 z1 Donor 3 .quadrature. Donor 4 z2 For comparison average T cell-stimulatory response to rHBsAg subtype ad (146,478), parent peptide (96,930=100%) and media control (1,147) was examined at optimal concentrations for each antigen. Values expressed in parentheses are mean cpms of ^3 H-TdR incorporation of triplicate wells. Amino acid residues replacing amino acids in the parent sequence are shown at the bottom of the bars.
Sixty ml of blood was collected (in heparin containing syringes) from the antecubital vein of individuals who were vaccinated with a recombinant hepatitis B vaccine (RecombiVax HB; Merck, Sharp and Dohme). […]
Peripheral blood mononuclear cells were cultured in 96 well flat bottom plates at a density of 2.5×10^5 cells/100 μl per well in RPMI-1640 medium supplemented with 2mM glutamine, 100 units/ml penicillin, 100 μg/ml streptomycin, 50 μg/ml gentamycin and 10% human AB-positive serum. […] Proliferation, as measured by thymidine incorporation, was determined by liquid scintillation spectroscopy. Results are expressed as mean counts per minute (cpm) for triplicate cultures.

Substance | T-cell proliferative response / tolerance of replacement (in words) [5] | inhibition of attachment of anti-HBs to HBsAg-coated wells, preliminary results (in words) [6] | T-cell proliferative response / tolerance of replacement (in words) [7] | other results
peptide S(139-147): peptide S(139-147) in both linear and cyclic forms (LYLPAGGSS; also: linear and cyclic forms; UniProt P03141 139-147, looked up, fragment) | – | – | – | proliferation of T-helper lymphocytes (in words) [1]: elicited the proliferation of T-helper (Th) lymphocytes; proliferation of T-helper lymphocytes (in words) [2]: elicited the proliferation of T-helper (Th) lymphocytes
cyclic peptide corresponding to the sequence S(139-147): cyclic peptide S(139-147) from the S-protein subtype adw with a disulfide bond between residues (139-147) | – | – | – | binding / affinity to anti-HBs (in words) [3]: affinity similar to that determined for the reaction between native HBsAg and anti-HBs; antibodies elicited (in words) [4]: elicited antibodies reactive with native HBsAg
CTKPTDGNC [S(139-147) peptide with threonine at position 143, corresponding to S-protein subtype ad] | much more effective in eliciting proliferation of T-cells from mice immunized with HBsAg ad in comparison with the ay specific peptide | inhibited the attachment of anti-HBs to HBsAg-coated wells | most favored replacement | –
CTKPSDGNC | most tolerated | inhibited the attachment of anti-HBs to HBsAg-coated wells | much more effective in eliciting proliferation of T-cells from mice immunized with HBsAg ayr in comparison with the ad-specific peptide | T-cell proliferative response / tolerance of replacement (in words) [8]: responded virtually equally; IC50 ([6]; HBsAg-coated wells, rabbit antiserum to S(135-155) diluted 150-fold, read-out: concentration of peptide at which a 50% inhibition of anti-HBs attachment occurred (C50)): 56 nM
